Calls of active or inactive are those of the source.
Columns and labels:
[1] = Luminescence Cell-Based Dose Retest to Confirm Inhibitors of Cancer Stem Cells. [Related pubchem assays (depositor defined):AID2717, AID2721]; assay type: functional; details: Homo sapiens
[2] = Trypanosoma cruzi growth suppression in host cells – NIH3T3 host cells, beta-gal luminescence, confirmation (AID 2044); assay type: functional, cell-based;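 note: intracellular parasites grown in NIH/3T3 mouse fibroblasts as host cells; luminescent beta-galactosidase reporter signal from transgenic T. cruzi replicating inside host cells; inhibitors lower the luminescence signal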
[3] = molecular target: Cytochrome P450 3A4 (Homo sapiens, UniProt P08684);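 note: CYP3A4 tested as one member of a cytochrome P450 panel screen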
Sequence of Cytochrome P450 3A4 (P08684 whole entry): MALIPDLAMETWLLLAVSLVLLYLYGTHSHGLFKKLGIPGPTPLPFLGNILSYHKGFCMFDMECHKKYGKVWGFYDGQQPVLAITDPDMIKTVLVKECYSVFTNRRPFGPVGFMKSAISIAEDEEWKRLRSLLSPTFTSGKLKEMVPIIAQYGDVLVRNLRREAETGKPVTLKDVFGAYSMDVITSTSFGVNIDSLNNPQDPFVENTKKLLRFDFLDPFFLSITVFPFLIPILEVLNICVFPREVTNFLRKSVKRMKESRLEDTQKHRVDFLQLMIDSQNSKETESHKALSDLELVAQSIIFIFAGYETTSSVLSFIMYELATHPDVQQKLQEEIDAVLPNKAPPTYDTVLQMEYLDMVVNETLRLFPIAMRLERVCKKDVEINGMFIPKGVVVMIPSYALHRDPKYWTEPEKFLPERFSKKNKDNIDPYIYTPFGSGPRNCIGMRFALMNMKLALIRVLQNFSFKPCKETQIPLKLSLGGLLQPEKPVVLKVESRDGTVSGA

[4] = NIH3T3 cell viability loss – ATP luminescence, mouse fibroblasts, counter-screen, dose response (AID 2010); assay type: functional, cell-based;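 note: cells exposed to compound for about 90 hours before reading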
[5] = molecular target: Cytochrome P450 2D6 (Homo sapiens, UniProt P10635);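 note: CYP2D6 member of a cytochrome P450 panel assay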
Sequence of Cytochrome P450 2D6 (P10635 whole entry): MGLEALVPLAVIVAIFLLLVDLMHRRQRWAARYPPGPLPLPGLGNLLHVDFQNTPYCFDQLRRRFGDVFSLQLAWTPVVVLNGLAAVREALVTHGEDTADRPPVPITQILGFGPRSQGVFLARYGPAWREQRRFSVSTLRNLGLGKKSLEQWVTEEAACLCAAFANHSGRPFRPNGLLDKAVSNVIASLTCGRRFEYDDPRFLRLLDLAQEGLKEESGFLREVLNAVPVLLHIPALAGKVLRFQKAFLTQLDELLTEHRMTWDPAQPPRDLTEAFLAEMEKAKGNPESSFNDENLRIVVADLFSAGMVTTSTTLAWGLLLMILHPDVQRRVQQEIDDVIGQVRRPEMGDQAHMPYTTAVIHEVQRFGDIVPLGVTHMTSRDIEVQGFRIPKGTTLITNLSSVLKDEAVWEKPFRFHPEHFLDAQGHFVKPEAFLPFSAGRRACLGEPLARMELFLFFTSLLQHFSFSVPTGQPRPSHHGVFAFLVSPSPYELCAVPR

[6] = molecular target: Cytochrome P450 2C9 (Homo sapiens, UniProt P11712)
Sequence of Cytochrome P450 2C9 (P11712 whole entry): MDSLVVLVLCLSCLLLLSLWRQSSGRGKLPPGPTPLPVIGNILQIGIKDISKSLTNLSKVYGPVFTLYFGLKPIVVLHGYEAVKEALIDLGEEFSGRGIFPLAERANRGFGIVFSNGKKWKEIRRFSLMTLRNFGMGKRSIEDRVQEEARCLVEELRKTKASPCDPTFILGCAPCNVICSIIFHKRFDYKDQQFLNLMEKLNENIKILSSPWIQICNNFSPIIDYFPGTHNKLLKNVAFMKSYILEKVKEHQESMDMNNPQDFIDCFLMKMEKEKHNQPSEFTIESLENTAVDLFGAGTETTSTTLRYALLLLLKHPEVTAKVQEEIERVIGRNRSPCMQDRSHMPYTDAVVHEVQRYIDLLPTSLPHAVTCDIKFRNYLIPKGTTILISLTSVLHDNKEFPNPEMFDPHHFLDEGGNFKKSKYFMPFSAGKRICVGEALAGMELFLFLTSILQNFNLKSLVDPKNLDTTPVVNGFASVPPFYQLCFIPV

[7] = molecular target: T1, Cytochrome P450 1A2 (Homo sapiens, UniProt P05177);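 note: PubChem cytochrome P450 panel assay, CYP1A2 panel member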
T1 sequence (P05177 whole entry): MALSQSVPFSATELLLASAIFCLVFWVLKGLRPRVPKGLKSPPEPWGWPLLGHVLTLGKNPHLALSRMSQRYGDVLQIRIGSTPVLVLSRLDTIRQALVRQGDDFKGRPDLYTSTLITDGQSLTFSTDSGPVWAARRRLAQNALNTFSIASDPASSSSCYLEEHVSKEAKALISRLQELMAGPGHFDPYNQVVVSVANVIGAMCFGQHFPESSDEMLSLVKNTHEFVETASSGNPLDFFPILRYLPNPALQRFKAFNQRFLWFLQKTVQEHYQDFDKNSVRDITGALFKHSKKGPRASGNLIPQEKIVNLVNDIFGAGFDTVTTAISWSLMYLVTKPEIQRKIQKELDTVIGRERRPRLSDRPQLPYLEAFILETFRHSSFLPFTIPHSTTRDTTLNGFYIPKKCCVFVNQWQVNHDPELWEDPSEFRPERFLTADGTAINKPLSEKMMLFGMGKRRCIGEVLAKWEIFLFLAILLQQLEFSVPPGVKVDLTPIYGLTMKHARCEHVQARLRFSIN

[8] = molecular target: Cytochrome P450 2C19 (Homo sapiens, UniProt P33261); experiment: Cytochrome panel assay with activity outcomes. Panel member name: p450-cyp2c19 Compounds with AC50 equal or less than 10 uM are considered active; assay type: functional; details: read-out: AC50
Sequence of Cytochrome P450 2C19 (P33261 whole entry): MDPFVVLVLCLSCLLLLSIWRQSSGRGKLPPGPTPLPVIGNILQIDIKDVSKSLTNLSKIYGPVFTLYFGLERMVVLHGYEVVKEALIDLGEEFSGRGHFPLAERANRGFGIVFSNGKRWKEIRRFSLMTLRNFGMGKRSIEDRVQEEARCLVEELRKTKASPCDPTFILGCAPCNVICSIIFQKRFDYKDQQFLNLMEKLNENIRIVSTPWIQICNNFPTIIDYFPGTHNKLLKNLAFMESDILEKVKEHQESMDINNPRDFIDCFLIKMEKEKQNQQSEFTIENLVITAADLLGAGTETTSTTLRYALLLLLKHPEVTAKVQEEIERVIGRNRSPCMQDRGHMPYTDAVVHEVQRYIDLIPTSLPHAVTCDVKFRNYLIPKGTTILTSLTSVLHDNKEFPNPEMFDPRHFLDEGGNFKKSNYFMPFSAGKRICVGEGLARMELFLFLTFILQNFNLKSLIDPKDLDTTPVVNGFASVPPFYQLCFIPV

[9] = system: INS1; experiment: INS-1E survival protection against cytokine death – cell-based, luminescence, retest, dose response (AID 449756); assay type: functional; details: Rattus norvegicus;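 note: cell death triggered by IL-1 beta plus TNF-alpha plus IFN-gamma mixture; protective hits raise ATP signal compared with cytokine alone wells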
[10] = system: Streptococcus sp. 'group A'; experiment: Streptococcus pyogenes SK(-)GAS viability under kanamycin – luminescence, BacTiterGlo, confirmation, counter-screen for streptokinase expression inhibitor project, dose response (AID 1900); assay type: functional, organism-based
[11] = molecular target: T2, Streptokinase A (Streptococcus pyogenes serotype M1, UniProt P10520); experiment: viability-normalized secreted streptokinase activity reduction – plasminogen activation absorbance, OD405, dose response (AID 1914); assay type: functional, Streptococcus pyogenes M1 GAS;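 note: secreted streptokinase activity via plasminogen activation per viability signal from cell pellet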
T2 sequence (P10520 whole entry): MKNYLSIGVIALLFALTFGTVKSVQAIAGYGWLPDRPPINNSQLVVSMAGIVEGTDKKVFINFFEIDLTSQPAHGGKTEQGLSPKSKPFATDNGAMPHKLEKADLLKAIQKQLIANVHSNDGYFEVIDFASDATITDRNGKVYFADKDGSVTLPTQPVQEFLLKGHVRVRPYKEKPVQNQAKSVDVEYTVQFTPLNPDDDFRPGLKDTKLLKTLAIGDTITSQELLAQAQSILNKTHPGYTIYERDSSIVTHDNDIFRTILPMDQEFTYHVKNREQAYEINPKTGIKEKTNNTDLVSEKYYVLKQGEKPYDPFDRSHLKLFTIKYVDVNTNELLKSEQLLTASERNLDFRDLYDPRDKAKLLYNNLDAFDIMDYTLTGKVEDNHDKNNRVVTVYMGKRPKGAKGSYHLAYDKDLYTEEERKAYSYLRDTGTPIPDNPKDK

[12] = system: Streptococcus; experiment: GAS UMAA2166 growth inhibition – luminescence, BacTiterGlo, counter-screen for streptokinase expression inhibitor project, dose response (AID 1915); assay type: functional, organism-based;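 note: potency for reduction of bacterial viability or growth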

Question: Which AC50 [1] does the source give for `O=C(CC1NCCc2ccccc21)Nc1ccc(Oc2ccccc2)cc1` (configuration not stated) here?
Answer: Its AC50 is 7.35 µM (active).

Question: For `COc1cccc2[nH]c3c(N4CC(C)CC(C)C4)ncnc3c12` (configuration not stated), which EC50 [2] is on record?
Answer: Its EC50 is 1.39 µM (active).

Question: What about the AC50 [3] of the same compound?
Answer: Its AC50 is 0.891 µM (inconclusive).

Question: What about the EC50 [4] of the same compound?
Answer: The EC50 was > 60 µM (not active).

Question: Which AC50 [5] does the source give for `COC(=O)C1=C(C)N=C2SC(C)C(=O)N2C1/C=C/c1ccccc1` (configuration not stated) here?
Answer: Its AC50 is 28.2 µM (inconclusive).

Question: Which results are given for `Cc1nn(Cc2ccc(Cl)cc2Cl)c(C)c1NC(=O)c1sc2ccccc2c1Cl`?
Answer: AC50 [6]: 1.78 µM (inconclusive); AC50 [7]: 25.1 µM (inconclusive); AC50 [8]: 22.4 µM (inconclusive)

Question: For `Cn1cccc1C1C=C(c2ccc(C(C)(C)C)cc2)Nc2ncnn21` (configuration not stated), which AC50 [9] is on record?
Answer: Its AC50 is 3.45 µM (active).

Question: Which AC50 [1] does the source give for `CCN(Cc1ccccc1)c1ccc(/C=N/NC(=S)NC(C)C)cc1` here?
Answer: Its AC50 is 31.1 µM (active).

Question: Which EC50 [2] does the source give for `CCN(CC)CCN(C(=O)CCOc1ccccc1)c1nc2c(F)cc(F)cc2s1` here?
Answer: Its EC50 is 1.02 µM (active).

Question: What about the EC50 [4] of the same compound?
Answer: Its EC50 is > 60 µM (inconclusive).

Question: With `Cc1nnc(NC(=O)c2ccc(S(=O)(=O)N3CC(C)CC(C)C3)cc2)o1` (configuration not stated) as the compound, how does the EC50 [10] read?
Answer: Its EC50 is 7.28 µM (active).

Question: What about the EC50 [11] of the same compound?
Answer: The EC50 was > 150 µM (not active).

Question: And the EC50 [12]?
Answer: The EC50 was 21 µM (active).

Question: With `COc1ccc(/C=C(/C#N)C(=O)Nc2cc(C)ccc2C)cc1C(=O)O` as the compound, how does the AC50 [5] read?
Answer: Its AC50 is 25.1 µM (inconclusive).

Question: For `c1cnc(N2CCC3(CCNCC3)CC2)nc1`, which AC50 [3] is on record?
Answer: The AC50 was 20 µM (inconclusive).

Question: And the AC50 [5]?
Answer: The AC50 was 10 µM (inconclusive).

Question: With `C[C@@H](CN1CCC(Cc2ccccc2)CC1)[C@@H](O)c1ccc(O)cc1` as the compound, how does the AC50 [7] read?
Answer: The AC50 was 39.8 µM (inconclusive).

Question: Which AC50 [1] does the source give for `CCCOc1c(Cl)cc(C(=O)Nc2ccc3c(c2)OCO3)cc1OCC` here?
Answer: Its AC50 is 2.39 µM (active).

Question: For `Oc1cc(-c2ccc(N3CCCCC3)nc2)cc2cccnc12`, which AC50 [9] is on record?
Answer: Its AC50 is 3.18 µM (active).

Question: For `Cc1ccc(NC(=O)Nc2cccc([N+](=O)[O-])c2)cc1F`, which EC50 [2] is on record?
Answer: The EC50 was 2.49 µM (active).

Question: What about the AC50 [9] of the same compound?
Answer: The AC50 was 6.65 µM (active).

Question: And the EC50 [4]?
Answer: Its EC50 is > 60 µM (not active).

Question: For `Cc1ccccc1C(=O)N=c1nc(S)ss1`, which EC50 [10] is on record?
Answer: The EC50 was 2.81 µM (active).

Question: And the EC50 [11]?
Answer: The EC50 was 2.04 µM (active).

Question: And the EC50 [12]?
Answer: Its EC50 is 36.5 µM (active).

Question: Which results are given for `O=P(c1ccccc1)(c1ccccc1)N1CC2(CC2)CC(O)(c2ccccc2)C1` (configuration not stated)?
Answer: AC50 [6]: 39.8 µM (inconclusive); AC50 [5]: 20 µM (inconclusive)

Question: Which AC50 [7] does the source give for `O=c1[nH]c2cc(Cl)ccc2c(O)c1-c1cccc(Oc2ccccc2)c1` here?
Answer: The AC50 was 2.51 µM (inconclusive).

Question: And the AC50 [8]?
Answer: Its AC50 is 31.6 µM (inconclusive).

Question: What does the source list for `CSc1cccc(NC(=S)N(Cc2ccccc2)Cc2cccnc2)c1`?
Answer: EC50 [2]: 0.653 µM (active); EC50 [4]: > 60 µM (not active)

Question: With `C=CCC[C@H](Cc1ccc(F)cc1)C(=O)O[C@H](CNC(=O)[C@@H](CC=C)CC(=O)N(CCO)Cc1ccccc1)c1ccccc1` as the compound, how does the AC50 [1] read?
Answer: The AC50 was 7.34 µM (active).

Question: For `CCCN1CC[C@@H]2c3cc(O)ccc3CC[C@H]21`, which AC50 [5] is on record?
Answer: Its AC50 is 31.6 µM (inconclusive).

Question: For `CN(C)CCCOC(=O)c1ccc(Cl)cc1Cl`, which EC50 [2] is on record?
Answer: The EC50 was 2.56 µM (active).

Question: What about the EC50 [4] of the same compound?
Answer: Its EC50 is > 60 µM (not active).

Question: With `Oc1c(Cl)cc(CN(Cc2cc(Cl)c(O)c(Cl)c2)C2CCCCC2)cc1Cl` as the compound, how does the AC50 [6] read?
Answer: Its AC50 is 3.98 µM (inconclusive).

Question: And the AC50 [5]?
Answer: Its AC50 is 5.01 µM (inconclusive).

Question: Which results are given for `CCN(CC)C(=O)CSc1nnc(-c2ccncc2)n1N`?
Answer: AC50 [6]: 31.6 µM (inconclusive); AC50 [5]: 17.8 µM (inconclusive)

Question: With `CC(CNC(=O)c1ccc(OC2CCN(Cc3ccccn3)CC2)cc1)Oc1cccnc1` (configuration not stated) as the compound, how does the AC50 [9] read?
Answer: The AC50 was 5.59 µM (active).

Question: For `COc1ccc(NC(=O)N2CCC3(CC2)CCN(S(=O)(=O)c2ccccc2)CC3)cc1`, which AC50 [3] is on record?
Answer: The AC50 was 20 µM (inconclusive).

Question: And the AC50 [7]?
Answer: Its AC50 is 31.6 µM (inconclusive).

Question: And the AC50 [5]?
Answer: Its AC50 is 25.1 µM (inconclusive).

Question: Which results are given for `c1ccc(COc2cccc(CNCc3cccnc3)c2)cc1`?
Answer: EC50 [2]: 8.34 µM (active); EC50 [4]: > 30 µM (not active)
